In the Kinase Knowledgebase extract (Sharma et al. 2016):

target: EGFR (human) (UniProt P00533)
Sequence (P00533 whole entry, looked up): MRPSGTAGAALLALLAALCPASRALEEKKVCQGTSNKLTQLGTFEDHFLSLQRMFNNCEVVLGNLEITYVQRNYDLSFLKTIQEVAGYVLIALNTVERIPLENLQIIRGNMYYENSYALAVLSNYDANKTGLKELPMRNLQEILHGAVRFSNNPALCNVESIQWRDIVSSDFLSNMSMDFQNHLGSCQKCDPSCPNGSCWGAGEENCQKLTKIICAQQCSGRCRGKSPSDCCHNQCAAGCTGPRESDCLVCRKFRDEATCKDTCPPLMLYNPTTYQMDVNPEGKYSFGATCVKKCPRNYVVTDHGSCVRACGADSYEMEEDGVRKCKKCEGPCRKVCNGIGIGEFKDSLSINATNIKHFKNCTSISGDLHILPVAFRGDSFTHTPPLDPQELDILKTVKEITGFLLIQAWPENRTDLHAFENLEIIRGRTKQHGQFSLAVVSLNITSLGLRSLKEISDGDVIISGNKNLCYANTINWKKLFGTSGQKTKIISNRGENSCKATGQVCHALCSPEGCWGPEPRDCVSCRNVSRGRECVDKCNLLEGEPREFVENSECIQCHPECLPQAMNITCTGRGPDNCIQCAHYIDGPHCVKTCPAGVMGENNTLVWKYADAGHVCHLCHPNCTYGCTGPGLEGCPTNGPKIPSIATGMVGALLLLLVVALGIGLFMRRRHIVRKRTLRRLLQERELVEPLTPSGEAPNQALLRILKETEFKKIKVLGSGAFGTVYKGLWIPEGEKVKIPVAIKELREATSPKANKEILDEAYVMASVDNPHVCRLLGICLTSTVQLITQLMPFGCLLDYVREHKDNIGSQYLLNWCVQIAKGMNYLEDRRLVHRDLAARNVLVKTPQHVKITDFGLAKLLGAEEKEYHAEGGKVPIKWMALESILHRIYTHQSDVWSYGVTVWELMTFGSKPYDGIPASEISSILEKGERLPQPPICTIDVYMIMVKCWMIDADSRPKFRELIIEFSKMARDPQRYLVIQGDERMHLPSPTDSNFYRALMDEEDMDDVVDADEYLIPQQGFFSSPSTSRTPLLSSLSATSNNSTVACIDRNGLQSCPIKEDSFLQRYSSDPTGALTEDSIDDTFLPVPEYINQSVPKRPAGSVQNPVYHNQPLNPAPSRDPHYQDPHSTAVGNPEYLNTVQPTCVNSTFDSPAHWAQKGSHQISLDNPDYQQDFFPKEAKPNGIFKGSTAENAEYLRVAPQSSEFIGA

Question: Which IC50 does the source give for `Fc1cc2ncnc(Nc3cccc(Br)c3)c2cn1` here?
Answer: 13.2 nM

Question: For `CN(C)c1cccc(Nc2ncnc3cc(N)ncc23)c1`, which IC50 is on record?
Answer: 1820 nM

Question: Which IC50 does the source give for `Nc1ccc2c(Nc3ccccc3)ncnc2c1` here?
Answer: 100 nM

Question: `COc1cccc(Nc2ncnc3cc(N)ncc23)c1` was tested. Which IC50 did it give?
Answer: 132 nM

Question: Which IC50 does the source give for `COc1cc2ncnc(Nc3cccc(Br)c3)c2cn1` here?
Answer: 39.8 nM

Question: With `Nc1cc2ncnc(Nc3cccc(F)c3)c2cn1` as the compound, how does the IC50 read?
Answer: 851 nM

Question: `Nc1cc2ncnc(Nc3cccc([N+](=O)[O-])c3)c2cn1` was tested. Which IC50 did it give?
Answer: 40.7 nM

Question: `CC(=O)Nc1cc2ncnc(Nc3cccc(Br)c3)c2cn1` was tested. Which IC50 did it give?
Answer: 29.5 nM

Question: For `Nc1cc2ncnc(Nc3ccccc3Br)c2cn1`, which IC50 is on record?
Answer: 245 nM

Question: How did the IC50 turn out when `COc1cc2ncnc(Nc3ccc(Br)cc3)c2cc1OC` was run?
Answer: 0.977 nM
